These results are taken from US9550749B2, “Endoparasite control agent and method for using the same” (The University of Tokyo, priority 2012, dated 2017).

In test [1] the target is T1, Ascaris suum succinate-ubiquinone reductase (mitochondrial complex II) (Ascaris suum, UniProt O44074+P92506+P92507).
T1 construct: from tissue; host or cells: mitochondria from adult Ascaris suum muscle
The test is described as follows: In vitro measurement of inhibitory activity on Ascaris suum succinate-ubiquinone reductase (mitochondrial complex II). In kind it is biochemical. To be noted: mitochondria from adult Ascaris suum muscle, UQ2 60 μM, succinate 10 mM, 25° C. How it is done:
In Vitro Measurement of Inhibitory Activity on Ascaris suum Succinate-Ubiquinone Reductase (Mitochondrial Complex II)
To a solution containing 50 mM potassium phosphate (pH 7.4) and 0.1% (w/v) sucrose monolaurate, an electron acceptor ubiquinone-2 (UQ2) was added at a final concentration of 60 μM, and the mixture was allowed to stand at 25° C. for 20 minutes. To this, potassium cyanide (final concentration: 2 mM) and mitochondria prepared from adult Ascaris suum muscle were added, and thorough mixing was done. To aliquots of the mixture, an inhibitor to be tested was added at various concentrations, and the mixtures were allowed to stand at 25° C. for 3 minutes. The enzymatic reaction was initiated by addition of potassium succinate (final concentration: 10 mM). The enzymatic activity was calculated based on the measurement of change in the absorbance at 278 nm of UQ2 (e=1.5×10^4 M^−1 cm^−1), and IC50 was determined from the plot of the inhibition percentage against the inhibitor concentration.

Test [2] deals with Haemonchus contortus L1-stage larvae. The test is described as follows: In vivo activity test on Haemonchus nematode (motor ability of L1-stage larvae in 96-well plate). To be noted: 27° C./95% RH, 4 days. How it is done:
In Vivo Activity Test on Haemonchus Nematode In a 96-well plate, twenty L1-stage larvae (Haemonchus contortus) per well were maintained so that they could freely move, and solutions of compounds of the present invention dissolved at predetermined concentrations in DMSO (the final concentration of DMSO was 0.78% (v/v)) were added at 0.5 Ill/well each. The plate was kept under the conditions of 27° C./95% RH for 4 days. The motor ability of the larvae was examined and the concentration required for 50% inhibition of the motor ability (EC50) was determined. Based on the EC50 value, the activity against the Haemonchus nematode was graded according to the criterion shown below. Grading Criterion A: The EC50 value is lower than 0.5 ppm. B: The EC50 value is 0.5 ppm or higher but lower than 5 ppm. C: The EC50 value is 5 ppm or higher.

T1 sequence (O44074 22-282): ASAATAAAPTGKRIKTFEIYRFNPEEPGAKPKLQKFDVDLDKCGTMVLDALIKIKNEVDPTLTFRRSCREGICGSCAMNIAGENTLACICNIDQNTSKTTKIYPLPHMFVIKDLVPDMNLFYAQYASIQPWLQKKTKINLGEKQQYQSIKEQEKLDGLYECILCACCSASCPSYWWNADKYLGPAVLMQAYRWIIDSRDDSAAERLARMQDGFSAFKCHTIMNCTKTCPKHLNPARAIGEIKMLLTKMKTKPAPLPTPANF
T1 sequence (P92506 32-188): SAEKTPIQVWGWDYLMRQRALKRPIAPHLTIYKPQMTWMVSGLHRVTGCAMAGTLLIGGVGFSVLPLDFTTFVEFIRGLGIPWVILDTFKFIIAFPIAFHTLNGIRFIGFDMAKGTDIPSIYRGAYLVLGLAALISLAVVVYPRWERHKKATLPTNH
T1 sequence (P92507 26-156): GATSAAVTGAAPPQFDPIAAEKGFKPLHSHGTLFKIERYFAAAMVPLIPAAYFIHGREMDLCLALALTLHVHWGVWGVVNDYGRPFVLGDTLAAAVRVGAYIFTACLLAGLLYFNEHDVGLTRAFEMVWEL
T1 sequence (Q33862 19-645 partner): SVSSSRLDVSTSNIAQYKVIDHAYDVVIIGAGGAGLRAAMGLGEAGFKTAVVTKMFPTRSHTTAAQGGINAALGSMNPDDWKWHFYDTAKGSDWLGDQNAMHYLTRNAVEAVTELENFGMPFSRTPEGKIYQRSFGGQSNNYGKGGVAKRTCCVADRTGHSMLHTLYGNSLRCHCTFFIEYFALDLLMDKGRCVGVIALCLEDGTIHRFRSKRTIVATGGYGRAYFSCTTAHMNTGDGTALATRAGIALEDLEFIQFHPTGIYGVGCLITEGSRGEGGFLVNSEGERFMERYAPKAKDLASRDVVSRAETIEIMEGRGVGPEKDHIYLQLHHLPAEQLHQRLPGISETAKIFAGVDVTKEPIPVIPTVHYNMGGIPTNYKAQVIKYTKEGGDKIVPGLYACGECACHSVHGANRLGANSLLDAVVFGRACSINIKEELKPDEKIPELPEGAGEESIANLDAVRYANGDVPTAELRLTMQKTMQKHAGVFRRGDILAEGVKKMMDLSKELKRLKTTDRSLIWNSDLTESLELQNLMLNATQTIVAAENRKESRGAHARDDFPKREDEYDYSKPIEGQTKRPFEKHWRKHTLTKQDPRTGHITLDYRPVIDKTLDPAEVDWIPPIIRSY

The IC50 is the concentration that inhibits the measured activity by half. Consider `C[C@@H](Cn1nc(Cl)cc1C(F)(F)F)NC(=O)c1ccccc1C(F)(F)F` [Compound 1], for which the IC50 in test [1] stood at 5.2 nM. Moreover, the “Grade (EC50, concentration required for 50% inhibition of the motor ability of larvae)” value in test [2] is listed as “A (The EC50 value is lower than 0.5 ppm.)”.
`C[C@@H](Cn1nc(C(F)(F)F)cc1Cl)NC(=O)c1ccccc1C(F)(F)F` [Compound 2]: the “Grade (EC50, concentration required for 50% inhibition of the motor ability of larvae)” value in test [2] is listed as “A (The EC50 value is lower than 0.5 ppm.)”.
`C[C@@H](Cn1nc(Cl)c(Br)c1Cl)NC(=O)c1ccccc1C(F)(F)F` [Compound 3] showed an IC50 in test [1] of 1.4 nM. In addition, the “Grade (EC50, concentration required for 50% inhibition of the motor ability of larvae)” value in test [2] is given as “A (The EC50 value is lower than 0.5 ppm.)”.
For `C[C@@H](Cn1nc(C(F)(F)F)c(Cl)c1Cl)NC(=O)c1ccccc1C(F)(F)F` [Compound 4] the same measures were 1.9 nM and “A (The EC50 value is lower than 0.5 ppm.)”.
As to `C[C@@H](Cn1nc(C(F)(F)F)cc1Br)NC(=O)c1ccccc1C(F)(F)F` [Compound 5], the IC50 in test [1] stood at 5.8 nM. Further, the “Grade (EC50, concentration required for 50% inhibition of the motor ability of larvae)” value in test [2] is recorded as “A (The EC50 value is lower than 0.5 ppm.)”.
Turning to `Cc1ccccc1C(=O)N[C@@H](C)Cn1nc(Cl)c(Br)c1C(F)(F)F` [Compound 6], the concentration for half-maximal inhibition (IC50) in test [1] was 2 nM.
`C[C@@H](Cn1nc(Cl)c(Br)c1C(F)(F)F)NC(=O)c1ccccc1C(F)(F)F` [Compound 7] came in with an IC50 in test [1] of 1.7 nM. In test [2], the “Grade (EC50, concentration required for 50% inhibition of the motor ability of larvae)” value is on record as “A (The EC50 value is lower than 0.5 ppm.)”.
Consider `Cc1ccccc1C(=O)N[C@@H](C)Cn1nc(Cl)cc1C(F)(F)F` [Compound 10], for which, in test [2], the “Grade (EC50, concentration required for 50% inhibition of the motor ability of larvae)” value is listed as “B (The EC50 value is 0.5 ppm or higher but lower than 5 ppm.)”.
`C[C@@H](Cn1nc(Br)c(Br)c1Br)NC(=O)c1ccccc1C(F)(F)F` [Compound 14] came in with a concentration for half-maximal inhibition (IC50) in test [1] of 1.8 nM.
With `CSc1cc(C(F)(F)F)n(C[C@H](C)NC(=O)c2ccccc2C(F)(F)F)n1` [Compound 18], in test [1], the IC50 worked out at 3.1 nM.
Regarding `C[C@@H](COc1ncc(C(F)(F)F)cc1Cl)NC(=O)c1ccccc1C(F)(F)F` [Compound 23], the IC50 in test [1] is 1.8 nM. Also, the “Grade (EC50, concentration required for 50% inhibition of the motor ability of larvae)” value in test [2] is “A (The EC50 value is lower than 0.5 ppm.)”.
The compound `O=C(NCCNc1ncc(C(F)(F)F)cc1Cl)c1ccccc1C(F)(F)F` [Compound 24] yielded an IC50 in test [1] of 11 nM. For the same compound, in test [2], the “Grade (EC50, concentration required for 50% inhibition of the motor ability of larvae)” value is recorded as “A (The EC50 value is lower than 0.5 ppm.)”.
With `O=C(NCCc1ccc(Oc2ncc(C(F)(F)F)cc2Cl)cc1Cl)c1ccccc1C(F)(F)F` [Compound 26], in test [1], the IC50 came to 1.4 nM. Besides, the “Grade (EC50, concentration required for 50% inhibition of the motor ability of larvae)” value in test [2] was “A (The EC50 value is lower than 0.5 ppm.)”.
`C[S+]([O-])c1ccc(CCNC(=O)c2ccccc2C(F)(F)F)c(Cl)c1` (centres unmarked) [Compound 27] displayed an IC50 in test [1] of 260 nM. For the same compound, the “Grade (EC50, concentration required for 50% inhibition of the motor ability of larvae)” value in test [2] is given as “B (The EC50 value is 0.5 ppm or higher but lower than 5 ppm.)”.
For `CSc1ccccc1C(=O)NCCc1ccc(Cl)cc1Cl` [Compound 28] the same measures were 1.2 nM and “A (The EC50 value is lower than 0.5 ppm.)”.
Take `O=C(NCCc1ccc(Cl)cc1Cl)c1ccccc1SC(F)F` [Compound 31]: in test [1], half-maximal inhibition (IC50) was put at 8.2 nM.
Compound `O=C(NCCc1ccc(Cl)cc1Cl)c1ccccc1OC(F)(F)F` [Compound 32] yielded an IC50 in test [1] of 48 nM. Further, in test [2], the “Grade (EC50, concentration required for 50% inhibition of the motor ability of larvae)” value is “A (The EC50 value is lower than 0.5 ppm.)”.
Turning to `O=C(NCCc1ncc(C(F)(F)F)cc1Cl)c1ccccc1Cl` [Compound 34], the IC50 in test [1] is 2.1 nM.
Still for that read-out and setting: under `O=C(NCCc1ncc(C(F)(F)F)cc1Cl)c1ccccc1Br` [Compound 35] stands 2.3 nM.
For the compound `O=C(NCCc1ncc(C(F)(F)F)cc1Cl)c1ccccc1I` [Compound 36], in test [1], the IC50 was found to be 1.2 nM. For the same compound, in test [2], the “Grade (EC50, concentration required for 50% inhibition of the motor ability of larvae)” value is “A (The EC50 value is lower than 0.5 ppm.)”.
`Cc1ccccc1C(=O)NCCc1ncc(C(F)(F)F)cc1Cl` [Compound 37] registered an IC50 in test [1] of 2.6 nM. In other words, the single-digit nanomolar range.
Still for that read-out and setting: under `O=C(NCCc1ncc(C(F)(F)F)cc1Cl)c1c(F)cccc1F` [Compound 39] stands 5.3 nM; under `O=C(NCCc1ncc(C(F)(F)F)cc1Cl)c1c(Cl)cccc1Cl` [Compound 40], 39 nM.
